Results taken from ChEMBL document CHEMBL1201862, “PubChem BioAssay data set” (2004).
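Grown in 96-well plates, cells were treated for 48 hours with each compound at five concentrations. Insufficient inhibition: endpoint recorded as highest concentration tested. Here, GI50 denotes the concentration required for 50% inhibition of growth.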 Activity calls are given as the source filed them. Rule as the data show it: active = GI50 up to about 1.1 µM and inactive = higher.

Experiments:
Experiment in all cases: NCI-60 cell line screen, 48 h
786-0 = system: 786-0
ACHN = system: ACHN
HCT-116 = system: HCT-116
HL-60 = system: HL-60
HT-29 = system: HT-29
K562 = system: K562
MOLT-4 = system: MOLT-4
RPMI-8226 = system: RPMI-8226
RXF 393 = system: RXF 393
SF-295 = system: SF-295
SF-539 = system: SF-539
SNB-19 = system: SNB-19
SNB-75 = system: SNB-75
TK-10 = system: TK-10
U-251 = system: U-251
UO-31 = system: UO-31
CCRF-CEM = system: CCRF-CEM
CAKI-1 = system: CAKI-1
SK-OV-3 = system: SK-OV-3

Measured: GI50

O=c1c2ccccc2[nH]c(=S)n1-c1ccc(Br)cc1
inactive: 786-0 80.7 µM | ACHN 42.5 µM | HCT-116 68.4 µM | HL-60 > 100 µM | HT-29 44.9 µM | K562 43 µM | MOLT-4 76 µM | RPMI-8226 40.1 µM | RXF 393 > 100 µM | SF-295 66.8 µM | SF-539 > 100 µM | SNB-19 > 100 µM | SNB-75 30.7 µM | TK-10 > 100 µM | U-251 > 100 µM | UO-31 92.5 µM

c1ccc2c(c1)Cc1c(Cc3csc4ccccc34)ccc3cccc-2c13
inactive: 786-0 > 100 µM | ACHN > 100 µM | CCRF-CEM > 100 µM | HCT-116 > 100 µM | HL-60 > 100 µM | HT-29 > 100 µM | K562 45.9 µM | MOLT-4 > 100 µM | RPMI-8226 > 100 µM | RXF 393 > 100 µM | SF-295 > 100 µM | SF-539 > 100 µM | SNB-19 > 100 µM | SNB-75 19.7 µM | TK-10 > 10 µM | U-251 > 100 µM | UO-31 > 100 µM

Cn1c(=O)oc2cc(C3CCC(=O)N3Cc3csc(-c4ccccc4)n3)ccc21 (configuration not stated)
inactive: 786-0 > 100 µM | ACHN > 100 µM | CAKI-1 > 100 µM | CCRF-CEM > 100 µM | HCT-116 > 100 µM | HL-60 79.8 µM | HT-29 79.1 µM | K562 64.6 µM | MOLT-4 58.2 µM | RPMI-8226 > 100 µM | RXF 393 39.9 µM | SF-295 > 100 µM | SF-539 > 100 µM | SK-OV-3 > 100 µM | SNB-19 > 100 µM | SNB-75 25.3 µM | TK-10 > 100 µM | U-251 > 100 µM | UO-31 52.5 µM

Cc1c(C2Cc3ccccc3N2)c2ccccc2n1C (configuration not stated)
inactive: 786-0 > 100 µM | ACHN > 100 µM | CAKI-1 > 100 µM | CCRF-CEM > 100 µM | HCT-116 > 100 µM | HL-60 > 100 µM | HT-29 > 100 µM | K562 > 100 µM | MOLT-4 > 100 µM | RXF 393 > 100 µM | SF-295 > 100 µM | SF-539 > 100 µM | SK-OV-3 > 100 µM | SNB-19 > 100 µM | SNB-75 > 100 µM | TK-10 > 100 µM | U-251 > 100 µM | UO-31 > 100 µM

O=C1CCC(=O)N2CCCCN12
inactive: 786-0 > 100 µM | ACHN > 100 µM | CAKI-1 > 100 µM | CCRF-CEM > 100 µM | HCT-116 > 100 µM | HL-60 > 100 µM | HT-29 > 100 µM | K562 > 100 µM | MOLT-4 > 100 µM | RXF 393 > 100 µM | SF-295 > 100 µM | SF-539 > 100 µM | SK-OV-3 > 100 µM | SNB-19 > 100 µM | SNB-75 > 100 µM | TK-10 > 100 µM | U-251 > 100 µM | UO-31 > 100 µM

CCOC(=O)Cc1csc(Nc2ccccc2[N+](=O)[O-])n1
inactive: 786-0 > 100 µM | ACHN > 100 µM | CAKI-1 > 100 µM | CCRF-CEM > 100 µM | HCT-116 > 76.4 µM | HL-60 > 100 µM | HT-29 > 100 µM | K562 > 100 µM | MOLT-4 > 100 µM | RPMI-8226 > 100 µM | RXF 393 > 100 µM | SF-295 > 100 µM | SF-539 > 100 µM | SK-OV-3 > 100 µM | SNB-19 > 100 µM | SNB-75 > 100 µM | TK-10 > 100 µM | U-251 > 100 µM | UO-31 > 100 µM

CC(C)CC(CNC(Cc1ccc(Cl)cc1)C(N)=O)NC(=O)C(Cc1c[nH]cn1)NC(=O)CNC(=O)C(NC(=O)C(C)NC(=O)C(Cc1c[nH]c2ccccc12)NC(=O)C(CCC(=O)O)NC(=O)C(N)Cc1ccccc1)C(C)C (configuration not stated)
inactive: 786-0 > 133 µM | ACHN > 133 µM | CAKI-1 > 133 µM | CCRF-CEM > 133 µM | HCT-116 > 133 µM | HL-60 > 133 µM | HT-29 > 133 µM | K562 > 133 µM | MOLT-4 > 133 µM | RPMI-8226 > 133 µM | RXF 393 > 133 µM | SF-295 > 133 µM | SF-539 > 133 µM | SK-OV-3 > 133 µM | SNB-19 > 133 µM | SNB-75 > 133 µM | U-251 > 133 µM | UO-31 8.17 µM

CN(CCCN1C(=O)c2cccc3cc([N+](=O)[O-])cc(c23)C1=O)CCN(C)CCCN1C(=O)c2cccc3cc([N+](=O)[O-])cc(c23)C1=O
inactive: 786-0 13.6 µM | ACHN 17.9 µM | CAKI-1 31.9 µM | CCRF-CEM 6.34 µM | HCT-116 11.7 µM | HL-60 19.6 µM | HT-29 7.67 µM | K562 4.94 µM | MOLT-4 1.51 µM | RPMI-8226 2.23 µM | RXF 393 33 µM | SF-295 22.3 µM | SF-539 29.7 µM | SK-OV-3 > 39.3 µM | SNB-19 > 39.3 µM | SNB-75 20.4 µM | TK-10 > 39.3 µM | U-251 15.2 µM

CC(=O)O[C@H]1CC[C@@]2(C)C(=CC[C@H]3C(CC#N)[C@@](C)(C#N)CCC32)C1 (some centres not stated)
inactive: 786-0 > 100 µM | ACHN > 100 µM | CCRF-CEM > 100 µM | HCT-116 > 100 µM | HL-60 > 100 µM | HT-29 > 100 µM | K562 > 100 µM | MOLT-4 > 100 µM | RPMI-8226 > 100 µM | RXF 393 > 100 µM | SF-295 > 100 µM | SF-539 > 100 µM | SK-OV-3 > 100 µM | SNB-19 > 100 µM | SNB-75 69.8 µM | TK-10 > 100 µM | U-251 74 µM | UO-31 > 100 µM

CS(=O)(=O)Oc1cccc(/C=N/N=C(\N)NO)c1
inactive: 786-0 19.3 µM | ACHN 22.2 µM | CAKI-1 20.9 µM | CCRF-CEM 23.9 µM | HCT-116 32.9 µM | HL-60 19 µM | HT-29 24.8 µM | K562 19.1 µM | RXF 393 37.4 µM | SF-295 49.3 µM | SF-539 28.6 µM | SK-OV-3 27 µM | SNB-19 64.9 µM | SNB-75 2.96 µM | TK-10 14.7 µM | U-251 27.7 µM | UO-31 22.8 µM

O=C1CCCCC/C1=C\c1ccc([N+](=O)[O-])cc1
inactive: 786-0 19.7 µM | ACHN 21.5 µM | CAKI-1 22.7 µM | CCRF-CEM 26.7 µM | HCT-116 22.7 µM | HL-60 28.9 µM | HT-29 30.3 µM | K562 50 µM | MOLT-4 41.7 µM | RPMI-8226 33.3 µM | RXF 393 33.4 µM | SF-295 35.2 µM | SF-539 26.5 µM | SK-OV-3 36.1 µM | SNB-19 29.4 µM | SNB-75 29.7 µM | TK-10 28.5 µM | U-251 31.3 µM | UO-31 24.5 µM
